Experimental data published in patent publication US12378202B2, “Tetrahydrobenzoazepinones and related analogs for inhibiting YAP/TAZ-TEAD” (THE KATHOLIEKE UNIVERSITEIT LEUVEN, priority 2021, dated 2025).
pEC50, pIC50: −log10 of the molar value.

Columns and labels:
Format in all cases: cell-based
[1] = test system: YAP/TAZ-TEAD transcription; assay: Reporter gene assay (TEAD-responsive element luciferase reporter in Hek293T cells) for inhibition of YAP/TAZ-TEAD transcription; details: 24 hours incubation
Method: Hek293T cells are cultured in DMEM supplemented with 10% fetal bovine serum, Sodium pyruvate, Sodium bicarbonate, L-glutamine. The cells are harvested and transiently transfected with TEAD-responsive element luciferase reporter. Transfected cells are plated in 384-wells plate containing pre-diluted compounds. After 24 hours incubation at 37° C./5% CO2, assay plates were cooled down to RT and levelled to an equal volume per well, prior to the addition of 25 uL luciferase substrate SteadyLite (Perkin Elmer)/well. The plate was shaken for 10 min at 600 rpm, centrifuged for 1 min at 500 rpm and measured with an Envision reader (PerkinElmer). The amount of relative light units produced by the TEAD reporter is used to calculated percent of inhibition.
The percent of reporter inhibition was calculated in the presence of a positive control inhibitor (100% inhibition)versus a condition with the presence of the vehicle basal activity of the reporter (0% inhibition). The ability of a test compound to inhibit this activity was determined as:
Percentage inhibition=[1-((RLU determined in the presence of vehicle−RLU determined for sample with test compound present) divided by (RLU determined in the presence of vehicle−RLU determined for sample with positive control inhibitor))]*100
The activities of example compounds tested are depicted in Table 3. The activity ranges A, B and C refer to IC50 values in the reporter gene assay as follows: “A”: IC50<1 μM; “B”: 1 μM≤IC50≤20 μM and “C”: IC50>20 μM; NT=not tested.

NCI-H2052 = assay: Mesothelioma cell line proliferation assay (ATPlite), NCI-H2052; details: Homo sapiens, 144 h; NCI-H2052 mesothelioma cells, 6 days incubation, ATPlite cell viability
Method: (§1) Mesothelioma cell lines, NCI-H226 and NCI-H2052 (all sourced from the ATCC cell culture collection) are plated in 96-well plates (Corning® 96 Well White Polystyrene Microplate clear flat bottom, white polystyrene (TC-Treated)), at 1500 cells/well in full medium (RPMI 1640 ATCC modification with L-glutamine, HEPES, Phenol Red, Sodium Pyruvate, High glucose, Low sodium bicarbonate and 10% fetal bovine serum). Cells are incubated overnight at 37° C. in an incubator with 5% CO2. Then compounds, dissolved in DMSO, are added in dose-response. Cells are incubated with compound dilutions for another 6 days at 37° C. in an incubator with 5% CO2. Cell viability is quantitated using the ATPlite kit (Perkin-Elmer) and the luminescence is read-out using an Envision instrument (Perkin-Elmer). The amount of relative light units produced using the ATPlite kit is used to calculated percent of inhibition.
(§2) The activities of some example compounds are depicted in Table 4. The activity ranges A, B and C refer to EC50 values in the mesothelioma cell line proliferation assay as described as follows: “A”: EC50<1 μM; “B”: 1 μM≤EC50≤10 μM and “C”: EC50>10 μM; NT: not tested.

NCI-H226 = assay: Mesothelioma cell line proliferation assay (ATPlite), NCI-H226; details: Homo sapiens, 144 h; NCI-H226 mesothelioma cells, 6 days incubation, ATPlite cell viability
Method: as §1, §2

Compound	pIC50 ([1]; Homo sapiens, HEK-293T)	pIC50 [1]	pEC50 (NCI-H2052)	pEC50 (NCI-H226)
C=CC(=O)NC1CCc2ccccc2N(c2ccc(C(F)(F)F)cc2)C1=O (stereo not drawn) [Cpd. No. 010, N-(2-oxo-1-(4-(trifluoromethyl)phenyl)-2,3,4,5-tetrahydro-1H-benzo[b]azepin-3-yl)acrylamide]	< 4.70	–	–	–
O=C(O)CCNC1CCc2ccccc2N(c2ccc(C(F)(F)F)cc2)C1 (stereo not drawn) [Cpd. No. 006, 3-((1-(4-(trifluoromethyl)phenyl)-2,3,4,5-tetrahydro-1H-benzo[b]azepin-3-yl)amino)propanoic acid]	< 4.70	–	–	–
O=C1C(NCCCO)CCc2ccccc2N1c1ccc(C(F)(F)F)cc1 (stereo not drawn) [Cpd. No. 007, 3-((3-hydroxypropyl)amino)-1-(4-(trifluoromethyl)phenyl)-1,3,4,5-tetrahydro-2H-benzo[b]azepin-2-one]	< 4.70	–	–	–
NC1CCc2ccccc2N(c2ccc(C(F)(F)F)cc2)C1 (stereo not drawn) [Cpd. No. 001, 1-(4-(trifluoromethyl)phenyl)-2,3,4,5-tetrahydro-1H-benzo[b]azepin-3-amine]	4.70 to 6.00	–	–	–
O=C1CCCN(c2ccc(C(F)(F)F)cc2)c2ccc(NCCO)cc21 [Cpd. No. 011, 7-((2-hydroxyethyl)amino)-1-(4-(trifluoromethyl)phenyl)-1,2,3,4-tetrahydro-5H-benzo[b]azepin-5-one]	4.70 to 6.00	–	–	–
OCCNC1CCc2ccccc2N(c2ccc(C(F)(F)F)cc2)C1 (single isomer, unassigned) [Cpd. No. 003-En2, (R)- or (S)-2-((1-(4-(trifluoromethyl)phenyl)-2,3,4,5-tetrahydro-1H-benzo[b]azepin-3-yl)amino)ethan-1-ol]	–	4.70 to 6.00	–	–
OCCCNC1CCc2ccccc2N(c2ccc(C(F)(F)F)cc2)C1 (stereo not drawn) [Cpd. No. 005, 3-((1-(4-(trifluoromethyl)phenyl)-2,3,4,5-tetrahydro-1H-benzo[b]azepin-3-yl)amino)propan-1-ol]	4.70 to 6.00	–	–	–
NC1CCc2ccccc2N(c2ccc(C(F)(F)F)cc2)C1=O (stereo not drawn) [Cpd. No. 002, 3-amino-1-(4-(trifluoromethyl)phenyl)-1,3,4,5-tetrahydro-2H-benzo[b]azepin-2-one]	< 4.70	–	–	–

Second part, the compound after the results:

pIC50 ([1]; Homo sapiens, HEK-293T)	pIC50 [1]	pEC50 (NCI-H2052)	pEC50 (NCI-H226)	Compound
–	> 6.00	–	–	C=CC(=O)NC1CCc2ccccc2N(c2ccc(C(F)(F)F)cc2)C1 (single isomer, unassigned) [Cpd. No. 008-En2, (R)- or (S)-N-(1-(4-(trifluoromethyl)phenyl)-2,3,4,5-tetrahydro-1H-benzo[b]azepin-3-yl)acrylamide]
4.70 to 6.00	–	–	–	OCCNC1CCc2ccccc2N(c2ccc(C(F)(F)F)cc2)C1 (single isomer, unassigned) [Cpd. No. 003-En1, (R)- or (S)-2-((1-(4-(trifluoromethyl)phenyl)-2,3,4,5-tetrahydro-1H-benzo[b]azepin-3-yl)amino)ethan-1-ol]
> 6.00	–	–	–	C=CC(=O)NC1CCc2ccccc2N(c2ccc(C(F)(F)F)cc2)C1 (single isomer, unassigned) [Cpd. No. 008-En1, (R)- or (S)-N-(1-(4-(trifluoromethyl)phenyl)-2,3,4,5-tetrahydro-1H-benzo[b]azepin-3-yl)acrylamide]
4.70 to 6.00	–	> 6.00	> 6.00	C=CC(=O)NC1CCc2ccccc2N(c2ccc(C(F)(F)F)cc2)C1 (stereo not drawn) [Cpd. No. 008, N-(1-(4-(trifluoromethyl)phenyl)-2,3,4,5-tetrahydro-1H-benzo[b]azepin-3-yl)acrylamide]
< 4.70	–	–	–	O=C1CCCN(c2ccc(C(F)(F)F)cc2)c2ccc(NCCCO)cc21 [Cpd. No. 012, 7-((3-hydroxypropyl)amino)-1-(4-(trifluoromethyl)phenyl)-1,2,3,4-tetrahydro-5H-benzo[b]azepin-5-one]
4.70 to 6.00	–	< 5.00	< 5.00	OCCNC1CCc2ccccc2N(c2ccc(C(F)(F)F)cc2)C1 (stereo not drawn) [Cpd. No. 003, 2-((1-(4-(trifluoromethyl)phenyl)-2,3,4,5-tetrahydro-1H-benzo[b]azepin-3-yl)amino)ethan-1-ol]
> 6.00	–	> 6.00	> 6.00	C=CC(=O)NC1Cc2ccccc2N(c2ccc(C(F)(F)F)cc2)C1=O (stereo not drawn) [Cpd. No. 013, N-(2-oxo-1-(4-(trifluoromethyl)phenyl)-1,2,3,4-tetrahydroquinolin-3-yl)acrylamide]
4.70 to 6.00	–	–	–	O=C1C(NCCO)CCc2ccccc2N1c1ccc(C(F)(F)F)cc1 (stereo not drawn) [Cpd. No. 004, 3-((2-hydroxyethyl)amino)-1-(4-(trifluoromethyl)phenyl)-1,3,4,5-tetrahydro-2H-benzo[b]azepin-2-one]
4.70 to 6.00	–	–	–	C=CC(=O)NC1Cc2cnccc2N(c2ccc(C(F)(F)F)cc2)C1=O (stereo not drawn) [Cpd. No. 015, N-(2-oxo-1-(4-(trifluoromethyl)phenyl)-1,2,3,4-tetrahydro-1,6-naphthyridin-3-yl)acrylamide]
> 6.00	–	> 6.00	> 6.00	C=CC(=O)NC1Cc2c(F)cccc2N(c2ccc(C(F)(F)F)cc2)C1=O (stereo not drawn) [Cpd. No. 014, N-(5-fluoro-2-oxo-1-(4-(trifluoromethyl)phenyl)-1,2,3,4-tetrahydroquinolin-3-yl)acrylamide]
4.70 to 6.00	–	–	–	CCC(=O)NC1CCc2ccccc2N(c2ccc(C(F)(F)F)cc2)C1 (stereo not drawn) [Cpd. No. 009, N-(1-(4-(trifluoromethyl)phenyl)-2,3,4,5-tetrahydro-1H-benzo[b]azepin-3-yl)propionamide]
